Measured values as given in US6630313B2, “Phosphatidyl serine receptors and uses thereof” (National Jewish Medical and Research Center, priority 2000, dated 2003).

What was measured:
[1] = system: Jurkat T cells transfected with the candidate PSR; assay: Binding and phagocytosis of symmetric red cell ghosts; format: cell-based, human; conditions: for binding of symmetric red cell ghosts: FIG. 5; for binding and phagocytosis of symmetric red cell ghosts: stably transfected Jurkat T cells, FIG. 5 legend
From the text: A human EST clone (Accession No. R24727) containing the full length gene was obtained through the IMAGE Consortium via ATCC (Manassas, Va.). The insert was subcloned into pcDNA 3.1/neo at Hind III/Not I sites (Invitrogen, Carlsbad, Calif.). M12.C3 cells were transfected in OptiMEM I medium using Lipofectamine Plus (both from GibcoBRL Life Science Technologies, Grand Island, N.Y.). Jurkat T cells were transfected in OptiMEM I medium using DMRIE C Jurkat T cells were stimulated with PHA alone (1 μg/ml) or with PMA (1.6 nM) and PHA to induce expression of the receptor. After 48 hrs, the cells were analyzed for expression of the PS receptor using mAb 217 and flow cytometry. For stable transfections, Jurkat T cells were selected in G418 (1 mg/ml). Surface expression of the receptor was induced by treatment of the stably transfected cells with 160 nM PMA in the absence of G418 for 48 hours. The candidate PSR was also inserted into pRc/RSV (PharMingen, San Diego, Calif.), or pUP (provided by Brian Schaefer), and transfected into Jurkat T cells or M12.C3 cells by electroporation.
Human red blood cells were lysed in 1:50 PBS containing 1 mM CaCl2 on ice for one hour; they were resealed at 37° C. for 30 minutes by addition of 5×PBS. Exposure of phosphatidylserine was confirmed by binding of annexin-FITC, assessed by flow cytometry.

HMDM = assay: Uptake of apoptotic cells by HMDM; format: cell-based, human; conditions: control agents
Procedure: Human monocytes were obtained from normal donors, and cultured in X-Vivo 10 (BioWhitaker) containing 10% human serum. The differentiated macrophages (HMDM) were used at 7 days of culture. Mouse bone-marrow derived macrophages were derived by culturing bone marrow cells in M-CSF for 5-7 days.
Macrophages, fibroblasts, or epithelial cells were preincubated with 100 μM liposomes (containing 50:50 molar ratio of PS:PC or PI:PC), 1 mM RGDS or RGES, undiluted hybridoma supernatants containing mAb 217 or mAb 284 (for HMDM) or 100 μg/ml purified mAb 217, or 100 μg/ml isotype controls for 30 minutes prior to adding apoptotic Jurkat T cells at ratio of 5:1 target:phagocyte. Apoptosis was induced in Jurkat T cell by UV irradiation as described (Fadok et al., J Clin Invest 101:890-898 (1998)). THP-1 cells were stimulatedwith PMA (160 nM) for 72 hours to induce a macrophage phenotype, the ability to adhere, and the ability to take up apoptotic cells. After 1 hr, the phagocytes were washed and fixed for light microscopic evaluation of uptake. […] Aliquots were removed and assessed for binding and phagocytosis by light microscopy as described (Fadok et al., J Immunol 148:2207-2216 (1992); Fadok et al., J Immunol 149:4029-4035 (1992); Fadok et al., J Immunol 151:4274-4285 (1993); Fadok et al., J Immunol 161:6250-6257 (1998)). […]

| Compound | binding of symmetric red cell ghosts [1] | binding and phagocytosis of symmetric red cell ghosts [1] | effect on uptake of apoptotic cells by HMDM (HMDM) |
| --- | --- | --- | --- |
| N[C@H](COP(=O)(O)O)C(=O)O [phospho-D-serine] | not | not | – |
| RGES | – | – | no effect |
| N[C@@H](COP(=O)(O)O)C(=O)O [phospho-L-serine] | inhibited | inhibited stereospecifically | – |
